According to article PMC9265050, “Inhibition of RNA Binding in SND1 Increases the Levels of miR-1-3p and Sensitizes Cancer Cells to Navitoclax” (Cancers, 2022):

T1: SN1-SN2 (16-339) (Homo sapiens, UniProt Q7KZF4)
T1 construct: gene SND1; SN1-SN2 domain fragment, residues 16-339; N-terminal GST tag cut with TEV protease; E. coli Rosetta 2 (DE3)
T1 sequence (Q7KZF4 16-339): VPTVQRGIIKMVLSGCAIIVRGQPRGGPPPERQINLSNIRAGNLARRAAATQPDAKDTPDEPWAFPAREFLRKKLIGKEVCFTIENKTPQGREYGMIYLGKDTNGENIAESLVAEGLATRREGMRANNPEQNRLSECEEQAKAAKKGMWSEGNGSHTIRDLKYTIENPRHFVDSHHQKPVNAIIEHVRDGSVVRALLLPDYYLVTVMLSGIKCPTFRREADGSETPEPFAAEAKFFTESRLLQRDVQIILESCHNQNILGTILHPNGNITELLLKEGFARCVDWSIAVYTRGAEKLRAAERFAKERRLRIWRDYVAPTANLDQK

T2: SN3-SN4-TSN (340-888) (Homo sapiens, UniProt Q7KZF4)
T2 construct: gene SND1; SN3-SN4-TSN domain fragment, residues 340-888; N-terminal GST tag cut with TEV protease; E. coli Rosetta 2 (DE3)
T2 sequence (Q7KZF4 340-888): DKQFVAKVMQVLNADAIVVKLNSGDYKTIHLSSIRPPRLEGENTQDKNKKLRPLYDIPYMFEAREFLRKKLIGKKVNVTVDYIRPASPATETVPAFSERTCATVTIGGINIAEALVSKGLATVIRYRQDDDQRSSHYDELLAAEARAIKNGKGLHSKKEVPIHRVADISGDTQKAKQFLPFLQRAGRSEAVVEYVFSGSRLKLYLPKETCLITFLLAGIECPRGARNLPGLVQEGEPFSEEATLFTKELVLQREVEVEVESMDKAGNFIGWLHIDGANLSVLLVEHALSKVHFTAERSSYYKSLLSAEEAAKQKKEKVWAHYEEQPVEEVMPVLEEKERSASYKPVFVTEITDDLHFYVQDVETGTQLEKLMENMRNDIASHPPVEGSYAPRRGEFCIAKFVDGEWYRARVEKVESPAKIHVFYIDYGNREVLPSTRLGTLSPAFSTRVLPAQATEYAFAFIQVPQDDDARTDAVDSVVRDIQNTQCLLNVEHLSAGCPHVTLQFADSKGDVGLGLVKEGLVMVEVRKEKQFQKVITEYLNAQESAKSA


Assays:
[1] = biological target: T1, SN1-SN2 (16-339); test: isothermal titration calorimetry, one-site model; type: binding
Excerpt: isothermal titration calorimetry, one-site model on SN1-SN2 (16-339)

[2] = biological target: T2, SN3-SN4-TSN (340-888); test: isothermal titration calorimetry, one-site model; type: binding
Excerpt: isothermal titration calorimetry, one-site model on SN3-SN4-TSN (340-888)

[3] = biological target: SND1 full-length (UniProt Q7KZF4 1-910); test: fluorescence polarization; high affinity, Kd only in figure; inhibited by suramin, not by navitoclax; FP: 20 mM HEPES pH 7.5, 100 mM NaCl, 3 nM labelled RNA, 25 C; EMSA: same buffer with 5 mM EGTA or 5 mM CaCl2, room temperature 1 or 4 h, 20% PAGE 1xTBE 4 C; settings: protein: recombinant; tags: GST tag removed by TEV; label: 5' 6-FAM; single strand
Chain of SND1 full-length (Q7KZF4 whole entry): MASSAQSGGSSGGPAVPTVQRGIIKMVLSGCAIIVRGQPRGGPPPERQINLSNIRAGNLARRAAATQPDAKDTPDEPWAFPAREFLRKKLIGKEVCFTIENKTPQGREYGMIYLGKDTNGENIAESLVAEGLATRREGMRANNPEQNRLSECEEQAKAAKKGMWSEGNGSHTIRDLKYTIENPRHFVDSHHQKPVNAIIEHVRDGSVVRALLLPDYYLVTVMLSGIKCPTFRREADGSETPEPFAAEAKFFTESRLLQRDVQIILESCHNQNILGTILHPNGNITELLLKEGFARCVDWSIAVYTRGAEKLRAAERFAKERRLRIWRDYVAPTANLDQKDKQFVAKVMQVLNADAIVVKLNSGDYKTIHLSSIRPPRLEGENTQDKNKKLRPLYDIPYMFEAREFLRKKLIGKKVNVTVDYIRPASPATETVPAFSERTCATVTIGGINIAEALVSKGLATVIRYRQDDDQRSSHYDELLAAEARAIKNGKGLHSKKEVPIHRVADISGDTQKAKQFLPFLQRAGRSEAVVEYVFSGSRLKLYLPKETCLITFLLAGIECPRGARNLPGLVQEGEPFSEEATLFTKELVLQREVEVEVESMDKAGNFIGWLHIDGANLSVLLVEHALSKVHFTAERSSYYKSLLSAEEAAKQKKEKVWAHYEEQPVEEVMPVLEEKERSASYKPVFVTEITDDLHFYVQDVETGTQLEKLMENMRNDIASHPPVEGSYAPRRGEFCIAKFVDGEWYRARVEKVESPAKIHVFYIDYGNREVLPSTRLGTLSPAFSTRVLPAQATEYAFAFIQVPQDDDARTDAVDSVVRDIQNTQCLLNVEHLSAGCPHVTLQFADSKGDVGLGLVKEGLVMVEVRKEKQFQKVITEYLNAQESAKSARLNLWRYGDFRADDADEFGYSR

Row | Molecule | Kd [1] [µM] | Kd [2] [µM] | binding result [3]
1 | Cc1ccc(C(=O)Nc2ccc(S(=O)(=O)O)c3cc(S(=O)(=O)O)cc(S(=O)(=O)O)c23)cc1NC(=O)c1cccc(NC(=O)Nc2cccc(C(=O)Nc3cc(C(=O)Nc4ccc(S(=O)(=O)O)c5cc(S(=O)(=O)O)cc(S(=O)(=O)O)c45)ccc3C)c2)c1 [Suramin] | 12.1 | 5.59 | –
2 | UGGAAUGUAAAGAAGUAUGUAU (ssRNA) [miR-1-3p FP tracer] | – | – | binds
